In patent US9072732B2 (priority 2010, dated 2015):

Columns and labels:
Hep G2 cells = details: niacin 0.5 mM 24 h, then ethanol 48 h in presence or absence of niacin
Text: Cellular fat accumulation was quantitated by nile red O staining and by measuring fluorescence intensity.

[1] = tested on: high-fat-induced NAFLD in rats; assay: High-fat diet-induced NAFLD model in rats; details: 4 weeks

For O=C(O)c1cccnc1 [niacin, nicotinic acid], the alcohol-induced fat accumulation (Hep G2 cells) was “significantly inhibited”, the serum cholesterol levels ([1]; niacin 0.5% and 1% in high-fat diet, compared to rats fed high-fat diet) was “significantly decreased” and the “body weight of rats” value ([1]; niacin 0.5% or 1% in high-fat diet, compared to high-fat fed rats) was “no effect”. For the same compound, the serum triglyceride levels ([1]; niacin in high-fat diet, compared to rats fed high-fat diet) was “significantly decreased”.
